From patent publication US7531509B2, “Papillosin antimicrobial peptide, a gene coding said peptide, a vector, a transformed organism and a compound containing said organism” (Centre National de la Recherche Scientifique—CNRS, priority 2003, dated 2009)
No end group written: not given here.

Columns and labels:
M. luteus = format: cell-based; settings: 18 h
Method: (§1) Complementary tests were carried out to determine the spectrum of activity of papillosin. The minimal bactericidal concentration (MBC) for each bacterial strain tested is determined as follows: The peptide is placed in a solution containing 0.01% acetic acid and 0.2% bovine serum albumin (BSA), then, serial dilutions of 2 2 are realized in the same 0.01% solution of acetic acid and 0.2% BSA. 10 μl of each dilution are incubated in sterile 96-well plates (Becton Dickinson, USA, ref: 18572) in the presence of 100 μl of a bacterial suspension brought to an optical density of 0.001 at 600 nm in the Mueller Hinton environment (MLHB, SIGMA, ref: M-9677).
(§2) The bacterial growth is monitored after 18 hours of incubation under agitation. The MBC is determined by spreading out the content of the first three wells in which no bacterial growth was observed. This spreading out was carried out on Petri dishes on which an agar was poured prepared from the Mueller Hinton environment. These dishes were then incubated 18 hours. The MBC corresponds to the lowest concentration of peptide for which no bacterial colony was observed on the incubated dishes.

[1] = tested on: gram-positive and gram-negative bacteria; assay: Spectrum of antibacterial activity (summary); format: cell-based; settings: on gram-positive and gram-negative bacteria
Method: as §1, §2

Sequence: GFWKKVGSAAWGGVKAAAKGAAVGGLNALAKHIQ [papillosin]
- MBC (M. luteus): 0.125 to 0.25 µM
- bacteriolytic activity [1]: powerful bacteriolytic activity
